In US20150290148A1 (priority 2006, published 2015):
Entries after “also recorded” stand apart in the source; their conditions may differ.

Key:
[1] = tested on: interleukin 10 (IL10) gene; experiment: Quantitative real time PCR of hippocampal gene expression after IP injection; format: in vivo, Sprague-Dawley rats
interleukin 6 (IL6) gene = experiment: as above; format: in vivo, Sprague-Dawley rats; conditions: 6 hours after single IP 1.0 mg/kg
BcL2 = experiment: as above; format: in vivo, Sprague-Dawley rats; conditions: 6 hours after single IP 1.0 mg/kg, vs saline
[2] = tested on: brain derived neurotrophic factor; experiment: as above; format: in vivo, Sprague-Dawley rats; conditions: 6 hours after single IP 1.0 mg/kg, vs saline
neuropeptide Y = experiment: as above; format: in vivo, Sprague-Dawley rats; conditions: 6 hours after single IP 1.0 mg/kg, vs saline
neurotrophic factor 3 = experiment: as above; format: in vivo, Sprague-Dawley rats; conditions: 6 hours after single IP 1.0 mg/kg, vs saline
gerbils [3] = experiment: Gerbil 5-min 2-VO transient cerebral ischemia, open field activity; format: in vivo; conditions: for distance traveled in open field: tested 48 hrs after surgery, 5 min
Procedure: (§1) Gerbils were anesthetized with isoflurane and core-body temperature maintained at 37-38 C during surgery using a homeothermic blanket (Harvard Apparatus, South Natick, USA). A midline incision was made in the neck and the common carotid arteries were isolated and occluded for 5 min using 85-gm pressure aneurysm clips (ISCH; n=14). A second group of gerbils (SHAM; n=14) underwent the identical procedure except the carotid arteries were not clamped. The incision was sutured and animals received MAP (5 mg/kg; i.p) or equal volume of vehicle (saline; 0 mg) within 2 minutes of reperfusion. Animals were placed in a warmed cage, and observed for 30 minutes. Tylenol (8 mg/ml) was added to drinking water to provide postoperative analgesia.
(§2) Each gerbil was tested 48 hrs following surgery in an open-field apparatus consisting of a metal screen floor 77 cm×77 cm with walls 15 cm in height. Animals were placed in the center region and permitted to explore the novel environment for 5 minutes. Behavioral data (distance traveled, speed) were collected using an automated tracking system (ANY-maze, Stoelting, Ill.) and evaluated separately using ANOVA and the appropriate post hoc test (P<0.05 considered significant). Twenty-one days postsurgery, gerbils were euthanized with CO2 and perfused with phosphate buffered saline followed by 4% paraformaldehyde. Tissue from sham gerbils treated with MAP ([…]) was not evaluated since acute administration of MAP was not expected to histologically alter the hippocampus of this group. Brains were removed and post-fixed for at least 48 hrs prior to collection of 40 μm vibratome sections through the hippocampal region. Sections were mounted on slides and stained with cresyl violet. Damage to the hippocampal CA1 region was evaluated without knowledge of treatment condition by two independent observers using a 4 point rating scale described elsewhere (Babcock et al. 1993). A score of 0 (4-5 compact layers of normal neuronal bodies), 1 (4-5 compact layers with presence of some altered neurons), 2 (spares neuronal bodies with “ghost spaces” and/or glial cells between them), 3 (complete absence or presence of only rare normal neuronal bodies with intense gliosis of the CA1 subfield) was assigned for each animal. Ratings were averaged and evaluated using nonparametric statistics (Kruskal-Wallis and Mann-Whitney U test; P<0.05 considered significant).

hippocampal CA1 region = experiment: Gerbil 5-min 2-VO transient cerebral ischemia, histological rating of hippocampal CA1; format: in vivo; conditions: for damage to hippocampal CA1 following ischemic insult: MAP 5 mg/kg 1-2 minutes after ischemic insult
Procedure: as §1, §2

gerbils [4] = experiment: Preliminary dose study and observations in gerbils following surgery; format: in vivo, gerbil
male Wistar rats [5] = experiment: MCA embolic stroke in rats, infarct size by TTC staining; format: in vivo, rat
male Wistar rats [6] = experiment: MCA embolic stroke in rats, adhesive tape removal test; format: in vivo, rat
male Wistar rats [7] = experiment: MCA embolic stroke in rats, foot fault; format: in vivo, rat; conditions: 1.0 mg/kg/hr, started 0, 6 or 12 hours after stroke
male Wistar rats [8] = experiment: Traumatic brain injury (fluid percussion) in rats, tolerability; format: in vivo, rat; conditions: 0.5 mg/kg/hr 24 hr IV infusion plus bolus after TBI
Procedure: Three groups of male Wistar rats/group were used in this study. The animals were given 0 (vehicle control; saline), 0 (sham controls) or 0.5 mg/kg/hr MA via a 24 hr continuous IV infusion starting 3 hr after […] on Day 0. The test article was administered via an Alzet mini-osmotic pump at a rate of 0.0073 mL/hour. The dose concentration of MA loaded in the Alzet pump varied between animals (45.8-65.0 mg/mL), and was based on individual animal body weight on Day 0 and the dose concentration that would yield 0.5 mg/kg/hr MA at an infusion rate of 0.0073 mL/hr. Dosing of the animals was staggered over a 4-month period.
Prior to test article administration, all rats were subjected to a surgical procedure to produce a fluid percussion injury. Adult Sprague-Dawley rats (male, 350-500 g) are anesthetized with isoflurane anesthesia (1% isofluorane in 1 L/min O2) via face mask to effect for a small craniectomy (4.80 mm) and placement of a rigid Luer-loc needle hub (3 mm inside diameter). After luer lock hub placement, the hub is connected to the Cell Injury Controller through high pressure rubber tubing that delivers an fluid pulse to the dura. […] The righting reflex time after injury was recorded. […] Animals were monitored 3-4 times a day for the first 48 hr following surgery and daily thereafter for 14 days.

[9] = rats; cited from earlier work
male Wistar rats [10] = experiment: MCA embolic stroke in rats, modified neurological severity score / neurobehavioral outcomes
Source text: Male Wistar rats at ages of 8-12 weeks, weighing 300-450 g were used in all experiments. A donor rat was anesthetized with 3.5% Isoflurane, and anesthesia was maintained with 1.0-1.5% Isoflurane in 70% N2O and 30% O2 using a face mask. […] Rats were then anesthetized with 3.5% Isoflurane, and anesthesia was maintained with 1.0-1.5% Isoflurane in 70% N2O and 30% O2 using a face mask throughout the surgical procedure. The animal's muzzle was placed in the face mask 2 cm from the surgical site. Rectal temperature was maintained at 37±″0.5° C. throughout the surgical procedure using an electric heating system. Under a surgical operating microscope) the right common carotid arteries (CCA), the right external carotid artery (ECA) and the internal carotid artery (ICA) were isolated via a 3 cm ventral neck midline incision. A 6-0 silk suture was loosely tied at the origin of the ECA and ligated at the distal end of the ECA. The right CCA and ICA was temporarily clamped using a curved microvascular clip (Codman & Shurtleff, Inc., Randolf, MAP, USA). A modified PE-50 catheter filled with a single clot (˜1 μl), was attached to a 100-μl Hamilton syringe, and introduced into the ECA lumen through a small puncture. The suture around the origin of the ECA was tightened around the intraluminal catheter to prevent bleeding, and the microvascular clip was removed. The catheter was gently advanced from the ECA into the lumen of the ICA. The clot along with 5 μl of saline in the catheter was injected into the ICA over 10 seconds. The catheter was withdrawn from the right ECA immediately after injection. The right ECA was ligated. The duration of the entire surgical procedure was approximately 25 min.
Implantation of osmotic pumps for the purpose of continuous IV infusion occurred at both 6 and 12 hours after delivery of the 4cm clot. Experimental control for the experiment was achieved by substituting methamphetamine for physiological saline. Briefly, at 6 or 12 hours post stroke animals were re-anesthetized using 1-3% isoflurane. After a state of anesthesia was achieved the right side groin area was shaved. After shaving, surgical tape was utilized to remove excess hair. The area was scrubbed with betadine and allowed to dry.
A small incision was made and the groin area was blunt dissected to expose the femoral vein. The femoral vein was separated with surgical tweezers and the distal end was permanently ligated using 6-0 silk thread. The proximal end was ligated and a 0.2 mm incision (approximate) was made in the femoral vein. A 2.5 cm length of polyvinyl tubing (OD 0.07mm) connected to a pre-loaded osmotic pump (Alzet Corp. model 2001D; 6.6 microliters per hour for 24 hrs) was inserted into the vein and gently pushed up towards midline of the body. The tubing was inserted until 0.5 cm was exposed from the vein. The tubing was tied around the vein in two locations using 6-0 silk spaced approximately 2 mm apart. A small pocket was blunt dissected along the groin/abdominal area. The osmotic pump was inserted into the area on the outer wall of the abdomen underneath the skin and sutured into the abdominal fascia using 4-0 synthetic suture. The incision was closed using 4-0 synthetic suture. At 48-72 hours after initial insertion the animal was anesthetized, the groin area was scrubbed with betadine, the incision was reopened, blunt dissected, and the pump exposed. The sutures holding the pump and tubing in place were cut, the pump removed, and the femoral vein was permanently ligated using 6-0 silk suture. The pump was discarded and the incision was closed using 4-0 synthetic suture.

[11] = 0.1 mg/kg/hr IV infusion 24 hrs, immediately after stroke
[12] = 1.0 mg/kg/hr IV infusion 24 hrs, started 6 hours after stroke
[13] = 1.0 mg/kg/hr IV infusion 24 hrs, started 6 hours after stroke, listed as MAP
[14] = 1.0 mg/kg/hr IV infusion 24 hrs, started 12 hours after stroke, listed as MAP
[15] = 0.5 and 1.0 mg/kg/hr IV infusion 24 hrs, immediately after stroke
[16] = 0.5 and 1.0 mg/kg/hr IV infusion 24 hrs, immediately after stroke, listed as MAP

CN[C@@H](C)Cc1ccccc1 [methamphetamine]
change in IL10 gene expression in hippocampus ([1]; 1 hour after single IP 1.0 mg/kg, vs saline): 445%
IL10 expression in hippocampus vs saline ([1]; 6 hours after single IP 1.0 mg/kg): not significantly different from saline treated animals
IL6 expression in hippocampus vs saline (interleukin 6 (IL6) gene): not significantly different from saline treated animals
change in BcL2 gene expression in hippocampus (BcL2): +167%
change in brain derived neurotrophic factor gene expression in hippocampus [2]: +141%
change in neuropeptide Y gene expression in hippocampus (neuropeptide Y): +192%
change in neurotrophic factor 3 gene expression in hippocampus (neurotrophic factor 3): +192%
open field activity, SHAM+5 mg vs SHAM+0 mg (gerbils [3]; MAP 5 mg/kg i.p., 48 hrs after surgery): failed to significantly alter activity levels
open field activity, ischemic vs sham gerbils both treated with MAP (gerbils [3]; MAP 5 mg/kg i.p., 48 hrs after surgery, listed as MAP): not significantly different; also recorded: comparable to control levels
distance traveled in open field (gerbils [3]; ischemic gerbils, MAP 5 mg/kg i.p. within 2 min of reperfusion): 66.3 m
distance traveled in open field (gerbils [3]; sham gerbils, MAP 5 mg/kg i.p.): 72.7 m
histological rating score of hippocampal CA1 damage (0-3 scale) (hippocampal CA1 region; ISCH+5 mg MAP group, 21 days after ischemic insult): 0.07±0.07
damage to hippocampal CA1 following ischemic insult (hippocampal CA1 region; 21 days): significantly reduced damage to the hippocampal CA1; also recorded: failed to exhibit any damage to the hippocampus
damage to hippocampal CA1 following ischemic insult (hippocampal CA1 region; 21 days, listed as MAP): prevented any significant loss of hippocampal CA1 pyramidal cells
animals with any detectable neuronal pathology in the hippocampus (hippocampal CA1 region; ischemic gerbils treated with MAP 5 mg/kg, 21 days): 1 of 7
lethality in gerbils following surgery (gerbils [4]; doses greater than 5 mg/kg (10 and 20 mg/kg)): lethal
clinical observation after treatment (gerbils [4]; gerbils, MAP 5 mg/kg i.p. after surgery): became piloerect with their tails pointing up
infarct size / infarct volume at 7 days (male Wistar rats [5]; [11]): No significant reductions in infarct volumes
infarct size / infarct volume at 7 days (male Wistar rats [5]; 0.1 mg/kg/hr IV infusion 24 hrs, immediately after stroke, listed as MAP): failed to decrease the infarct size
infarct size / infarct volume at 7 days (male Wistar rats [5]; [12]): significant reduction in infarct volumes; also recorded: significantly reduces infarct size
infarct size / infarct volume at 7 days (male Wistar rats [5]; [13]): significantly reduced infarct size
infarct size / infarct volume at 7 days (male Wistar rats [5]; [14]): still significantly reduces infarct size
infarct size / infarct volume at 7 days (male Wistar rats [5]; [15]): reduces brain damage (infarct size); also recorded: significant reduction in infarct volumes
infarct size / infarct volume at 7 days (male Wistar rats [5]; [16]): decreased infarct size
infarct size / infarct volume at 7 days (male Wistar rats [5]; 0.5 and 1.0 mg/kg/hr IV infusion 24 hrs, immediately after stroke, listed as Methamphetamine): decreases infarct size
animals with substantial reduction in infarct volumes (male Wistar rats [5]; infusion beginning 12 hours after stroke): Four out of the nine
time to remove adhesive tape, day 7 vs day 1 (male Wistar rats [6]; [11]): no significant change in the time to remove tape
time to remove adhesive tape, day 7 vs day 1 (male Wistar rats [6]; 1 mg/kg/hr started 6 hours after stroke): improvement in function was still observed
time to remove adhesive tape, day 7 vs day 1 (male Wistar rats [6]; 1 mg/kg/hr withheld until 12 hours after stroke (data not shown)): failed to produce an effect
time to remove adhesive tape, day 7 vs day 1 (male Wistar rats [6]; 0.5 or 1.0 mg/kg/hr IV infusion 24 hrs, immediately after stroke): required significantly less time to remove the tape
foot fault values (male Wistar rats [7]): significant improvements in foot fault values
tolerability (male Wistar rats [8]): well tolerated with no toxicity
half-life [9]: approximately 1 hr
neurobehavioral outcomes (neurological severity score) (male Wistar rats [10]; [11]): improved neurobehavioral outcomes
neurobehavioral outcomes (neurological severity score) (male Wistar rats [10]; [12]): significant improvement in neurological severity scores; also recorded: significantly decreased neurobehavioral deficits
neurobehavioral outcomes (neurological severity score) (male Wistar rats [10]; [13]): improved neurobehavioral outcomes on all testing parameters
neurobehavioral outcomes (neurological severity score) (male Wistar rats [10]; 1.0 mg/kg/hr IV infusion 24 hrs, started 12 hours after stroke): significant improvement in neurological severity scores; also recorded: significantly decreased neurobehavioral deficits
neurobehavioral outcomes (neurological severity score) (male Wistar rats [10]; [14]): robust effect on neurobehavioral outcomes
neurobehavioral outcomes (neurological severity score) (male Wistar rats [10]; [15]): significant improvement in neurological severity scores
neurobehavioral outcomes (neurological severity score) (male Wistar rats [10]; [16]): improved neurobehavioral outcomes
